Data: patent US20090028840A1, “Compositions For Preventing Or Treating Arthritis Comprising Lactic Acid Bacteria and Collangen As Active Ingredients” (Gwangju Institute of Sciecne and Technology, priority 2005, published 2009)

Columns and labels:
[1] = tested on: collagen-induced arthritis (CIA); assay: Comparative tests for treatment efficacy in collagen-induced arthritis (CIA) rats; assay type: in vivo, Lewis rat; details: acute phase (until 35 days after immunization), FIGS. 3 and 4
[2] = tested on: infiltration of lymphocytes into joint tissues; assay: Histological analysis of ankle joints of CIA rats (hematoxylin and eosin); assay type: in vivo, rat; details: 35 days after immunization, FIG. 5
Source text: Joints dissected were washed with PBS and fixed for 24 hr in 4% paraformaldehyde, followed by decalcification for 2-3 days in decalcification solution (Merck). The decalcified joint tissues were embedded in paraffin, sectioned to […], deparaffinized, stained with hematoxylin and eosin, and observed under microscope. A basic dye, hematoxylin binds to nucleus containing negative-charged DNA and RNA molecules and an acidic dye, eosin binds to cytoplasmic proteins and collagen with positive charge.

CN(Cc1cnc2nc(N)nc(N)c2n1)c1ccc(C(=O)N[C@@H](CCC(=O)O)C(=O)O)cc1 [MTX, methotrexate]
treatment efficacy on arthritis during acute phase [1]: better until acute phase (until 35 days after immunization) than the present composition | infiltration of lymphocytes (immune cells) into joints [2]: little or no occurrence of the infiltration of lymphocytes

Lactobacillus casei [lactic acid bacteria]
treatment efficacy on arthritis during acute phase [1]: low
